Measurements reported in patent US8372823B2, “Tetracyclic inhibitors of fatty acid amide hydrolase” (The Scripps Research Institute, priority 2007, dated 2013).

Tests used:
Format in all cases: biochemical
FAAH = target: T1, FAAH (Homo sapiens, UniProt O00519); assay: FAAH inhibition IC50, human; set-up: expressed in transfected cells; host or cells: COS-7 (transient transfection), solubilized membrane extracts; conditions: inhibition at 3-5 test compound concentrations
T1 sequence (O00519 1-579): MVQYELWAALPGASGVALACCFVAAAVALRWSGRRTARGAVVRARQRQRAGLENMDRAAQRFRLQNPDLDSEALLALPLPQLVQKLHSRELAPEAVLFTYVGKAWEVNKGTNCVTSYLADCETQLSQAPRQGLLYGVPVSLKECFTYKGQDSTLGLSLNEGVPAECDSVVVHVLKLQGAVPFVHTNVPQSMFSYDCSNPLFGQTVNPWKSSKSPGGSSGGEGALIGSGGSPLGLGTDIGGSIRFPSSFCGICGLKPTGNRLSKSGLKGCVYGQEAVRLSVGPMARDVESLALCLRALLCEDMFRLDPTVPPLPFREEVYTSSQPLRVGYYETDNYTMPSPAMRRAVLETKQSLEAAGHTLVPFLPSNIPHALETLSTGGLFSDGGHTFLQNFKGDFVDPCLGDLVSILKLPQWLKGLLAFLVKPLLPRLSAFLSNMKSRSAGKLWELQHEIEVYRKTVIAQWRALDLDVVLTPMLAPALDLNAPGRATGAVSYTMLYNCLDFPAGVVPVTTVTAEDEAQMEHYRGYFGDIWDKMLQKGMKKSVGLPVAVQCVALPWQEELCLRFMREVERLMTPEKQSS
Protocol: (§1) Enzyme assays were performed at 20-23° C. with purified recombinant rat FAAH expressed in E. coli (Patricelli, M. P.; Lashuel, H. A.; et al. Biochemistry 1998, 37, 15177-15187) (unless indicated otherwise) or with solubilized COS-7 membrane extracts from cells transiently transfected with human FAAH cDNA (Giang, D. K.; Cravatt, B. F. Proc. Natl. Acad. Sci. U.S.A. 1997, 94, 2238-2242) (where specifically indicated) in a buffer of 125 mM Tris/1 mM EDTA/0.2% glycerol/0.02% Triton X-100/0.4 mM Hepes, pH 9.0 buffer (Patricelli, M. P.; Patterson, J. P.; et al. Bioorg. Med. Chem. Lett. 1998, 8, 613-618). […] NT=no data available.
(§2) IC50 values were determined from the inhibition observed at 3-5 different test compound concentrations (from three or more trials at each concentration) using the formula IC50=[I]/[K0/Ki)-1], where K0 is the control reaction rate without inhibitor and Ki is the rate with test compound at concentration [I] (Conde-Frieboes, K. et al. J. Am. Chem. Soc. 1996, 118, 5519-5525). NT=no data available.

[1] = target: T2, purified recombinant rat FAAH (Rattus norvegicus, UniProt P97612); assay: FAAH enzyme assay, Ki (Dixon plot), rat FAAH
T2 construct: made in house; host or cells: E. coli
T2 sequence (P97612 1-579): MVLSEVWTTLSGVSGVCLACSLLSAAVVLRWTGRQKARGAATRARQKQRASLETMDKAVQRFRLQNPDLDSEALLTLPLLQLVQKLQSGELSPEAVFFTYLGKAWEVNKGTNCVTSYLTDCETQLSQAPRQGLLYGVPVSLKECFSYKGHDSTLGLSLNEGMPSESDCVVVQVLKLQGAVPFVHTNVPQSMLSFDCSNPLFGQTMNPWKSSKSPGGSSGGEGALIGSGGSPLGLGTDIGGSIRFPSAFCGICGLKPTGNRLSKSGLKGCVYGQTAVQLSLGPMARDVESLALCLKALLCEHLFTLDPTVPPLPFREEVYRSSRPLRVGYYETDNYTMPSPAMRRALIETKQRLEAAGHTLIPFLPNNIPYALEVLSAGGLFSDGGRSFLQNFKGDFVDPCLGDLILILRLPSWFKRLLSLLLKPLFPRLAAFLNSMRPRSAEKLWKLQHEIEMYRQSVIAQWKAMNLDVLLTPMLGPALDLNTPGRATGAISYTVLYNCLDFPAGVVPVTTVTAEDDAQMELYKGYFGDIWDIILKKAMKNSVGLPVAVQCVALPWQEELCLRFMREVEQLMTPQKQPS

rat FAAH = target: T3, rat FAAH (Rattus norvegicus, UniProt P97612); assay: FAAH inhibition IC50, rat; conditions: inhibition at 3-5 test compound concentrations
T3 construct: made in house; host or cells: E. coli
T3 sequence (P97612 1-579): T2 sequence (P97612 1-579)
Protocol: as §1, §2

[2] = purified recombinant rat FAAH expressed in E. coli, 14C-oleamide hydrolysis, pH 9.0, 20-23° C.

Row | Compound | IC50 (FAAH) [nM] | Ki [1, 2] [nM] | IC50 (rat FAAH) [nM] | Ki ([1]; pH 9) [nM]
1 | CCOC(=O)c1cccc(-c2cnc(C(=O)CCc3ccc(-c4ccccc4)cc3)o2)n1 [Example 22, 6-[2-(3-Biphenyl-4-yl-propionyl)-oxazol-5-yl]-pyridine-2-carboxylic acid ethyl ester] | 2 | 3 | 2 | 
2 | O=C(O)c1ccc(-c2cnc(C(=O)CCc3ccc(-c4ccccc4)cc3)o2)nc1 [Example 25, 6-[2-(3-Biphenyl-4-yl-propionyl)-oxazol-5-yl]-nicotinic acid] | 0.5 |  | 0.3 | 14
3 | NC(=O)c1cccc(-c2cnc(C(=O)CCc3ccc(-c4ccccc4)cc3)o2)n1 [Example 26, 6-[2-(3-Biphenyl-4-yl-propionyl)-oxazol-5-yl]-pyridine-2-carboxylic acid amide] | 2 | 1.2 | 0.5 | 
4 | COC(=O)c1cc(-c2cnc(C(=O)CCc3ccc(-c4ccccc4)cc3)o2)ccn1 [Example 28, 4-[2-(3-Biphenyl-4-yl-propionyl)-oxazol-5-yl]-pyridine-2-carboxylic acid methyl ester] | 29 | 1.6 | 1.5 | 
5 | O=C(O)c1cc(-c2cnc(C(=O)CCc3ccc(-c4ccccc4)cc3)o2)ccn1 [Example 29, 4-[2-(3-Biphenyl-4-yl-propionyl)-oxazol-5-yl]-pyridine-2-carboxylic acid] | 7 | 50 | 3 | 
6 | O=C(O)c1cccc(-c2cnc(C(=O)CCc3ccc(-c4ccc(CN5CCOCC5)cc4)cc3)o2)n1 [Example 41, 6-{2-[3-(4′-Morpholin-4-ylmethyl-biphenyl-4-yl)-propionyl]-oxazol-5-yl}-pyridine-2-carboxylic acid] | 9 | 150 | 3 | 

The next lines start with results.

Row | IC50 (FAAH) [nM] | Ki [1, 2] [nM] | IC50 (rat FAAH) [nM] | Compound | Ki ([1]; pH 9) [nM]
7 | 5 | 2.2 | 8 | COC(=O)c1ccc(-c2cnc(C(=O)CCc3ccc(-c4ccccc4)cc3)o2)nc1 [Example 23, 6-[2-(3-Biphenyl-4-yl-propionyl)-oxazol-5-yl]-nicotinic acid methyl ester] | 
8 | 2 | 22 | 0.6 | O=C(O)c1cccc(-c2cnc(C(=O)CCc3ccc(-c4ccccc4)cc3)o2)n1 [Example 24, 6-[2-(3-Biphenyl-4-yl-propionyl)-oxazol-5-yl]-pyridine-2-carboxylic acid] | 
9 | 0.4 | 1.5 | 0.5 | NC(=O)c1ccc(-c2cnc(C(=O)CCc3ccc(-c4ccccc4)cc3)o2)nc1 [Example 27, 6-[2-(3-Biphenyl-4-yl-propionyl)-oxazol-5-yl]-nicotinamide] | 
10 | 16 | 2.3 | 3 | O=C(CCc1ccc(-c2ccccc2)cc1)c1ncc(-c2ccncc2)o1 [Example 30, 3-Biphenyl-4-yl-1-(5-pyridin-4-yl-oxazol-2-yl)-propan-1-one] | 
11 | 22 | 1.1 | 2 | O=C(CCc1ccc(-c2ccccc2)cc1)c1ncc(-c2cccnc2)o1 [Example 31, 3-Biphenyl-4-yl-1-(5-pyridin-3-yl-oxazol-2-yl)-propan-1-one] | 
12 | 500 | 0.6 | 17 | COC(=O)c1ccc(-c2cnc(C(=O)CCc3ccc(-c4ccccc4)cc3)o2)cn1 [Example 32, 5-[2-(3-Biphenyl-4-yl-propionyl)-oxazol-5-yl]pyridine-2-carboxylic acid methyl ester] | 
13 | 580 | 44 | 44 | O=C(O)c1ccc(-c2cnc(C(=O)CCc3ccc(-c4ccccc4)cc3)o2)cn1 [Example 33, 5-[2-(3-Biphenyl-4-yl-propionyl)-oxazol-5-yl]-pyridine-2-carboxylic acid] | 
14 | 21 | 31 | 2 | COC(=O)c1cccc(-c2cnc(C(=O)CCc3ccc(-c4ccc(CN5CCOCC5)cc4)cc3)o2)n1 [Example 35, 6-{2-[3-(4′-Morpholin-4-ylmethyl-biphenyl-4-yl)-propionyl]-oxazol-5-yl}-pyridine-2-carboxylic acid methyl ester] | 
